Measured values from patent publication US7452904B2, “1-alkyl-1-azoniabicyclo' 2.2.2 octane carbamate derivatives and their use as muscarinic receptor antagonists” (Chiesi Farmaceutici S.p.A., priority 2001, dated 2008).

What was measured:
[1] = target: T1, human M3 receptors (Homo sapiens, UniProt P20309); assay: Binding test to human M3 muscarinic receptor ([3H]-NMS displacement); settings: membranes from CHO-K1 cells transfected with human M3 receptor; [3H]-NMS 0.3-0.5 nM, 60 min, 25° C.; mean of two independent experiments, each in duplicate
T1 construct: expressed in transfected cells; host or cells: CHO-K1
Experimental: (§1) Binding Test to Human M2 and M3 Muscarinic Receptors
(§2) Membranes from CHO—K1 cells transfected with human M2 or M3 receptors were used. The summarised experimental procedure for both receptors was the following: cell membranes (15-20 μg) were incubated with [^3H]-NMS (0.3-0.5 nM) for 60 min at 25° C., in presence or absence of the antagonists. Incubation was carried out in 96 wells polystyrene microplates in a total incubation volume of 0.2 mL of PBS pH 7.4. Non specific binding was determined in parallel assays in presence of atropine (5 μM). Samples were filtered through type GF/C glass fibre, preincubated with PEI 0.3%. Filters were washed 3-4 times with 50 mM Tris-HCl, 0.9% NaCl, pH 7.4 at 4° C., and dried at 50° C. for 45 min. Filter bound radioactivity was quantified by liquid scintillation counting.
(§3) For the calculation of the inhibition constant (Ki), displacement curves were analysed by non-linear regression (GraphPad Prism). Dissociation constant (Kd) of [^3H]-NMS for each receptor was obtained through the saturation curves obtained in the same conditions as the experiments carried out with the corresponding antagonists.

[2] = target: T2, human M2 receptors (Homo sapiens, UniProt P08172); assay: Binding test to human M2 muscarinic receptor ([3H]-NMS displacement), reported as M2/M3 selectivity; settings: ratio of Ki at cloned human M2 versus M3 receptors; ratios greater than 1 indicate M3 selective activity
T2 construct: expressed in transfected cells; host or cells: CHO-K1
T2 sequence (P08172 1-466): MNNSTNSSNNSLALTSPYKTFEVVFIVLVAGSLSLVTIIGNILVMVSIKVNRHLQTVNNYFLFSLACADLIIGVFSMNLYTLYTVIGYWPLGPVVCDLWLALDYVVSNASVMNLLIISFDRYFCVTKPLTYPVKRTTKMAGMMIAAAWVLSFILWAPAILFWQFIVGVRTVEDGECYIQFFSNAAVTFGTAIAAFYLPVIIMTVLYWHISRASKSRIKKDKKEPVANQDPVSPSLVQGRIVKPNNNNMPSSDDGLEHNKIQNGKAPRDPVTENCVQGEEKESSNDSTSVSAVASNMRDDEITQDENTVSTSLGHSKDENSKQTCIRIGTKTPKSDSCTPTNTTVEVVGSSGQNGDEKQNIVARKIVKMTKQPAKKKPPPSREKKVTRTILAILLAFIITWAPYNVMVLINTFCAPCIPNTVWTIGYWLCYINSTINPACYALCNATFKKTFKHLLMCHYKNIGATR
Experimental: as §1, §2, §3

T1 sequence (P20309 whole entry): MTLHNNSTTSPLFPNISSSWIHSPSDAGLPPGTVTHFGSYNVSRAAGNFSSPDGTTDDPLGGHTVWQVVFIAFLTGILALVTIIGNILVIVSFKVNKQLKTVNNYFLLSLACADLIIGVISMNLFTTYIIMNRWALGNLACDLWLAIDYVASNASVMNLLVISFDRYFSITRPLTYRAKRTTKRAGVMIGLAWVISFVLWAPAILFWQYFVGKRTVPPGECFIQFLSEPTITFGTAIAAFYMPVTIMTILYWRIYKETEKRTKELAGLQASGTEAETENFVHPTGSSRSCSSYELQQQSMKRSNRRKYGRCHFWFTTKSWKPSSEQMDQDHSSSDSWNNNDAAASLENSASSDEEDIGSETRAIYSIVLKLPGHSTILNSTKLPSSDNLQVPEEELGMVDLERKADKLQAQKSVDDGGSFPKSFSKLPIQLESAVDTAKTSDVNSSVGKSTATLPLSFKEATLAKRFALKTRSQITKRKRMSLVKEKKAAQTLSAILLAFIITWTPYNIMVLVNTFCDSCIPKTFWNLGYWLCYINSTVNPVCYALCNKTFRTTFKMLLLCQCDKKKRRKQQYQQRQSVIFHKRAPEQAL

Compound | Ki [1] | M2/M3 (ratio) [2]
O=C(O[C@H]1C[N+]2(CCCOc3ccccc3)CCC1CC2)N(Cc1ccc(F)cc1)c1ccccc1.[Br-] [Ex. 11, (R)-3-[(4-Fluorobenzyl)phenylcarbamoyloxy]-1-(3-phenoxypropyl)-1-azoniabicyclo[2.2.2]octane; bromide] | 0.34 nM | 80 ratio
O=C(O[C@H]1C[N+]2(CCSc3ccccc3)CCC1CC2)N(Cc1cc(F)c(F)c(F)c1)c1ccccc1F.[Cl-] [Ex. 50, (R)-3-[(2-Fluorophenyl)-(3,4,5-trifluorobenzyl)carbamoyloxy]-1-(2-phenylsulfanylethyl)-1-azoniabicyclo[2.2.2]octane; chloride] | 0.06 nM | 345 ratio
O=C(C[N+]12CCC(CC1)[C@@H](OC(=O)N(Cc1ccsc1)c1cccc(F)c1)C2)c1ccccc1.[Br-] [Ex. 69, (R)-3-[(3-Fluorophenyl)thiophen-3-ylmethylcarbamoyloxy]-1(2-oxo-2-phenylethyl)-1-azoniabicyclo[2.2.2]octane; bromide] | 0.02 nM | 32 ratio
Cl.O=C(O[C@H]1CN2CCC1CC2)N(Cc1ccc(Cl)s1)c1cccc(F)c1 [Int. 29, (R)-(5-Chlorothiophen-2-ylmethyl)-(3-fluorophenyl)carbamic acid 1-azabicyclo[2.2.2]oct-3-yl ester; hydrochloride] | 0.02 nM | 105 ratio
Cc1cccc(N(Cc2ccsc2)C(=O)O[C@H]2CN3CCC2CC3)c1.Cl [Int. 32, (R)-Thiophen-3-ylmethyl-m-tolylcarbamic acid 1-azabicyclo[2.2.2]oct-3-yl ester; hydrochloride] | 0.15 nM | 23 ratio
O=C(O[C@H]1CN2CCC1CC2)N1CCc2ccccc2[C@@H]1c1ccccc1 [SOLIFENACIN, solifenacin, reference compound] | 8.3 nM | 10 ratio
